Laboratory results from the supplement of paper PMC10307832.

Legend:
Experiment in all cases: relative viability (nuclei count vs DMSO), 5 days (fraction); higher = more cells survive
Venetoclax + Vorinostat = compound: CC1(C)CCC(CN2CCN(c3ccc(C(=O)NS(=O)(=O)c4ccc(NCC5CCOCC5)c([N+](=O)[O-])c4)c(Oc4cnc5[nH]ccc5c4)c3)CC2)=C(c2ccc(Cl)cc2)C1 [Venetoclax] + O=C(CCCCCCC(=O)Nc1ccccc1)NO [Vorinostat] (partner 1 µM)
Method in brief: (§1)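 A single step with final 0.05% Triton X-100, 1% formaldehyde and 1 ug/ml Hoechst fixed the cells and stained nuclei 5 days after treatment. Lung cancer cell lines in 1536-well plates had been treated by pin tool the day after seeding with one drug alone or a fixed anchor-drug dose plus five library-drug doses (not always all listed) in √10 steps, and nuclei were counted on 4× images. Relative viability is the ratio of nuclei in treated wells to nuclei in vehicle wells, taken as the median of duplicate plates.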

Venetoclax + Alpelisib = compound: CC1(C)CCC(CN2CCN(c3ccc(C(=O)NS(=O)(=O)c4ccc(NCC5CCOCC5)c([N+](=O)[O-])c4)c(Oc4cnc5[nH]ccc5c4)c3)CC2)=C(c2ccc(Cl)cc2)C1 [Venetoclax] + Cc1nc(NC(=O)N2CCC[C@H]2C(N)=O)sc1-c1ccnc(C(C)(C)C(F)(F)F)c1 [Alpelisib] (partner 2 µM)
Method in brief: as §1

Selumetinib + Vorinostat = compound: Cn1cnc2c(F)c(Nc3ccc(Br)cc3Cl)c(C(=O)NOCCO)cc21 [Selumetinib] + O=C(CCCCCCC(=O)Nc1ccccc1)NO [Vorinostat] (partner 1 µM)
Method in brief: as §1

Venetoclax + Foretinib = compound: CC1(C)CCC(CN2CCN(c3ccc(C(=O)NS(=O)(=O)c4ccc(NCC5CCOCC5)c([N+](=O)[O-])c4)c(Oc4cnc5[nH]ccc5c4)c3)CC2)=C(c2ccc(Cl)cc2)C1 [Venetoclax] + COc1cc2c(Oc3ccc(NC(=O)C4(C(=O)Nc5ccc(F)cc5)CC4)cc3F)ccnc2cc1OCCCN1CCOCC1 [Foretinib] (partner 0.25 µM)
Method in brief: as §1

Question: Which results are given for UMC-11?
Answer: relative viability (Venetoclax + Vorinostat; first compound 0.01 µM): 0.329; relative viability (Venetoclax + Vorinostat; first compound 0.03162 µM): 0.29; relative viability (Venetoclax + Vorinostat; first compound 0.1 µM): 0.274; relative viability (Venetoclax + Vorinostat; first compound 0.3162 µM): 0.23; relative viability (Venetoclax + Vorinostat; first compound 1 µM): 0.261; relative viability (Venetoclax + Alpelisib; first compound 0.01 µM): 0.924; relative viability (Venetoclax + Alpelisib; first compound 0.03162 µM): 1.05; relative viability (Venetoclax + Alpelisib; first compound 0.1 µM): 0.926; relative viability (Venetoclax + Alpelisib; first compound 0.3162 µM): 0.923; relative viability (Venetoclax + Alpelisib; first compound 1 µM): 0.915; relative viability (Selumetinib + Vorinostat; first compound 0.02 µM): 0.387; relative viability (Selumetinib + Vorinostat; first compound 0.06325 µM): 0.285; relative viability (Selumetinib + Vorinostat; first compound 0.2 µM): 0.348; relative viability (Selumetinib + Vorinostat; first compound 0.6325 µM): 0.368; relative viability (Venetoclax + Foretinib; first compound 0.01 µM): 1.08; relative viability (Venetoclax + Foretinib; first compound 0.03162 µM): 1.05; relative viability (Venetoclax + Foretinib; first compound 0.1 µM): 1.01; relative viability (Venetoclax + Foretinib; first compound 0.3162 µM): 0.961; relative viability (Venetoclax + Foretinib; first compound 1 µM): 0.913
